Here are results for five substances from patent US8557767B2, “Synthetic apolipoprotein E mimicking polypeptides and methods of use” (UAB Research Foundation, priority 2007, dated 2013).

Assay [1] relates to human VLDL. Conditions: cited from earlier work.
Assay [2] concerns atherogenic apo B-containing lipoproteins in human plasma. Conditions: cited from earlier work.
Assay [3] relates to apo E null mice. Kind of assay: Plasma cholesterol in apo E null mice after i.v. 18L-2Y or R18L-2Y. Particulars: 100 ug i.v. The class given is in vivo. The text has this: Dual domain peptide that has LRKLRKRLLR (SEQ ID NO: 1), a sequence from apo E putative receptor binding domain, covalently linked to 18A (SEQ ID NO: 11) enhances uptake and degradation of apo B-containing lipoproteins. […] It has also been previously shown that that if the Lys residues are replaced by Arg, compared to the Lys-containing peptide, the resulting Arg-containing peptide has only 2% of lysis (Aikawa, M., et al. Circulation 106:1390-1396 2002). […] Rearrangement of the nonpolar face of 18L to incorporate aromatic residues at the center of the nonpolar face yields 18L-2. Addition of Tyr (for radiolabeling) yields 18L-2Y (FIG. 15). All of the Lys residues changed to Arg results in R18L2Y (FIG. 15).

The subject of assay [4] is apo E null mice. Kind of assay: Oral feeding of peptides in chow to apo E null mice: plasma cholesterol and aortic sinus lesion.
Experimental: The peptides were mixed in normal chow (1 mg/4 g chow) and fed ad libitum.
The study was continued for 6 weeks.
In assay [5] the test system is HepG2 cells. Briefly: Apo A-I / prebeta-HDL secretion by HepG2 cells. The class given is cell-based. Particulars: for prebeta-HDL production: equal amount on weight basis (50 ug/ml), first overnight incubation; for prebeta-HDL amount after second and third overnight incubation: fresh cell medium without peptide.
Assay [6] relates to apo E null mice. Kind of assay: Plasma cholesterol in apo E null mice after i.v. dual-domain peptides. The class given is in vivo. Particulars: iv, n=4. On the procedure:
The peptides represented are Ac-hE-18A-NH2, Ac-hE4F-NH2, and Ac-hE-Sc2F-NH2. Peptides Ac-hE-18A-NH2, Ac-hE-4F-NH2 and Ac-hE-Sc18A were administered (i.v.) to apo E null mice (n=4) and plasma cholesterol values were determined at before administration (0 min), 5 min and 2 h after administration.
As described above, peptides Ac-hE-18A-NH2, Ac-hE-4F-NH2 and Ac-hE-Sc18A were administered (iv) to apo E null mice (n=4) and plasma cholesterol values were determined at before administration (0 min), 5 min and 2 h after administration.

Regarding “Ac-18A-NH2: control peptide; end protected 18A (DWLKAFYDKVAEKLKEAF) (Ac-DWLKAFYDKVAEKLKEAF-NH2) [reference compound]”, the “interaction with VLDL” value in assay [1] is “displacement of apo E from VLDL”. In addition, in assay [2], the “association with atherogenic apo B-containing lipoproteins” value is listed as “not”.

Take Ac-GFRRFLGSWARIYRAFVG-NH2 [R18L-2Y]: in assay [3], the “ability to clear plasma cholesterol” value was “increased ability to clear plasma cholesterol compared to 18L-2Y”. Further, the “plasma cholesterol at end of 6 week feeding” value in assay [4] (1 mg per 4 g chow) is “significantly reduced”. The “atherosclerotic lesion formation, aortic sinus, Oil Red O” value in assay [4] (1 mg per 4 g chow, 6 weeks, four week old female mice) was “significantly less lesion formation”. Further, the “plasma cholesterol levels at 15 days and 30 days” value in assay [4] (1 mg/4 g of chow per animal per day, n=5) is “significant decrease”.

On to “Ac-hE-4F-NH2: dual-domain cationic peptide, hE linked to 4F, end protected (Ac-LRKLRKRLLRDWFKAFYDKVAEKFKEAF-NH2)”, for which, in assay [5], the prebeta-HDL production entry is “produced preβ-HDL”; the “prebeta-HDL amount after second and third overnight incubation” value is “produced significant amounts”. For the same substance, the “reduction in plasma cholesterol levels at 2 h time point” value in assay [6] is recorded as “large reduction”.

Consider “DWFKAFYDKVAEKFKEAF [4F, reference compound]”, for which, in assay [5], the prebeta-HDL production result is given as “produced preβ-HDL”; the “prebeta-HDL amount after second and third overnight incubation” value was “levels similar to that of control cell medium”.

Take LRKLRKRLLR: the “association with atherogenic apo B-containing lipoproteins” value in assay [2] is “not”.
